Experimental findings from patent US20220296674A1, “CELL PENETRATING PEPTIDES FOR INTRACELLULAR DELIVERY OF MOLECULES” (INSERM (INSTITUT NATIONAL DE LA SANTÉ ET DE LA RECHERCHE …, priority 2019, published 2022) are described below.

For one data set, the system named is U2OS cells. The data set can be described thus: Live cell fluorescence microscopy of FITC-labelled peptides. Particulars: 5 μM FITC-labelled peptide, 1 h. Format: cell-based. As for the experimental part:
FIG. 2 Cellular uptake of hAP10 and hAP10DR. (A) HUT78 cells were incubated with 5 μM of FITC-labelled hAP10 and hAP10DR or penetratin and TAT as controls for 1 h in complete medium. Cells were then washed with PBS, incubated in trypsin-EDTA solution (0.01% trypsin) at 37° C. for 10 min, resuspended in PBS and subjected to flow cytometry (right). Left: Bar diagram representing the uptake of the FITC-labelled peptides as mean cellular fluorescence from the flow cytometry analysis of live cells positive for FITC. Data are means±s.e.m. (n=3). (B) Fluorescence quantification of FITC-labelled hAP10 and hAP10DR uptaken in human B lymphocytes. Cells were incubated with 5 μM of FITC-labelled hAP10 and hAP10DR or penetratin and TAT as controls for 1 h in complete medium, washed with PBS and the fluorescence of the cell lysis measured as described in Material and Methods. Data are means±s.e.m. (n=3). (C) Intracellular distribution of FITC-labelled hAP10 and hAP10DR in U2OS cells. U2OS cells grown on coverslips were incubated with 5 μM of FITC-labelled hAP10 and hAP10DR or penetratin and TAT as controls for 1 h in complete medium, washed trice with PBS and live cells were imaged using fluorescence microscopy. […] Following incubation, the cells were washed three times in PBS and imaged using a Zeiss Axiovert 200 M inverted fluorescence microscope.

In data set [1] the test system is HUT78 Sézary cell line xenograft tumors. Kind of data set: Xenograft tumor model of Sézary syndrome. It is filed as in vivo. To be noted: systemic administration, single agent. As for the experimental part: FIG. 8 RT33 and RT33DR inhibit tumor growth in vivo in a mouse model for the Sézary syndrome. (A) Mice were engrafted subcutaneously with HUT78 Sézary cell line. Animals with preexisting tumors were treated daily with i.p. injections of RT33 or RT33DRM in normal saline (5 mg/kg) or normal saline as control. Tumors were calipered throughout the study and data were plotted as means±s.e.m. (n=7 mice per group). p<0.005 relative to control. Subsequently, tumors were excised, stripped of non-tumor tissue and tumors volumes were calculated. (B) Representative pictures of H&E staining of tumors treated with RT33, RT33DRM, or normal saline. The scale bar represents 500 μm.
Animal experiments were approved by The University Board Ethics Committee for Experimental Animal Studies (#2303.01). Xenograft tumors were obtained by subcutaneous injection of 10^6 HUT78 cells in the right flank of 8-week-old female NOD-SCID-gamma (NSG) mice, bred and housed under pathogen-free conditions at our animal facility (IUH, Saint Louis Hospital, Paris, France). Treatment started after randomization when tumors were visible and consisted of daily intraperitoneal (i.p.) injection of normal saline or RT33 or RT33DR in normal saline (n=5 per group). Tumor volume was measured every other day and calculated as: long axis X short axis^2 ×0.5. […]

The next data set has as its system non T-cells (CD3−). It is filed as cell-based, human. As for the experimental part:
(§1) FIG. 7 RT33 and RT33DR specifically induce primary Sézary cells death. Sézary patients' PBMC were incubated with increasing concentrations of the indicated peptides for 4 h at 37° C. Cells were then analyzed by flow cytometry following labeling with anti-TCRVβ-FITC, -CD4-PE, -CD3-PE-Cy7 mAbs and 7-AAD. Data are shown as the means±s.e.m. of the percentage of 7-AAD+apoptotic cells within the following populations: malignant (CD3^+CD4^+TCR-V β^+) and non-malignant (CD3^+CD4^+TCR-Vβ^−) CD4+T-cells and non T-cells (CD3^−), derived from three different patients.
(§2) PBMC exposed or not to RT33 or RT33DR were processed for flow cytometry to assess cell death. Cells were labelled with a mix of anti-TCR-Vβ-FITC, -CD3-PE and -CD4-PECy7 mAbs (Beckman Coulter). Detection of apoptotic cells was performed using 7AAD (BD Biosciences). Cells were analyzed on a CytoFlex cytometer (Beckman Coulter) and data treated with FlowJo software.

For data set [2], the system named is non-malignant (CD3+CD4+TCR-Vβ−) CD4+ T-cells. Format: cell-based, human. The method, then:
as §1, §2

A further data set deals with MRC-5. Kind of data set: Cell viability (MTT) after RT33 / RT33DR. Format: cell-based. To be noted: increasing concentrations, 20 h. The method, then: (§3) FIG. 6 RT33 and RT33DR induces cancer cells, but not normal cells, death. (A) Amino-acid sequence of RT33 and RT3DR. hAP10 and hAP10DR sequences are in bold. (B) The indicated cells were exposed to increasing concentrations of RT33 or RT3DR for 20 h. Viability was then assessed by an MTT assay. Data are means±s.e.m. (n=3). (C) HUT78 cells were exposed to increasing concentrations of RT33 or RT3DR for 20 h in the presence and absence of 50 μM zVAD-fmk or 50 μM Necrostatin-1 (Nec-1). Viability was then assessed by an MTT assay. Data are means±s.e.m. (n=3). (D) HUT78 cells were exposed to 20 μM of RT33 or RT33DR for 3 h. Necrotic cell death was monitored by lactate dehydrogenase (LDH) as in FIG. 4 (B). Data are means±s.e.m. (n=3). (E) Ultrastructural analysis of HUT78 cells treated with 15 μM of hAP10 or hAP10DR for 1 h. (F) Structural prediction of RT33 and RT33DR. The segments corresponding to the hAP10 and hAP10DR moieties are in light grey. (G) Cancerous C8161 cells or non-cancerous MRC-5 cells were exposed to FITC-labelled RT33 or RT33DR for 1 h. Cels were then examined by fluorescence microscopy.
(§4) Cells survival was assessed with the CellTiter 96® Aqueous One Solution Cell Proliferation Assay kit (Promega, Madison, Wis.). Necrotic plasma membrane permeabilization was assessed by lactate dehydrogenase (LDH) leakage in the culture medium with the CytoTox 96® Non-Radioactive Cytotoxicity Assay kit (Promega, Madison, Wis.).

A further data set deals with HaCat. Kind of data set: Cell viability (MTT) after RT33 / RT33DR. Particulars: increasing concentrations, 20 h. It is filed as cell-based. The method, then:
as §3, §4

Another data set has as its system HUT78. The data set can be described thus: Cell viability (MTT) after RT33 / RT33DR. It is filed as cell-based. Particulars: 50 μM zVAD-fmk, 20 h. As for the experimental part:
as §3, §4

Data set [3] concerns various cell lines. It is filed as cell-based. To be noted: data not shown. The method, then: (§5) FIG. 4 Lack of toxicity and immunogenicity of hAP10 and hAP10DR. (A) The indicated cells were exposed to increasing concentrations of hAP10 or hAP10DR for 20 h. Viability was then assessed by an MTT assay. Data are means±s.e.m. (n=3). (B) Necrotic cell death was monitored by lactate dehydrogenase (LDH) release from cells into the culture medium. The obtained values were normalized to those of the maximum LDH released (completely lysed) control. Data are means±s.e.m. (n=3). […] Mice red blood cells were incubated with 30 μM of hAP10 or hAP10DR. Released hemoglobin was detected by densitometry at 540 nm. Hemoglobin release by cells treated with 1% Triton X-100 was used as 100% lysis control. (D) Levels of IL-6 secretion from RAW 264.7 cells exposed to 10 μM of hAP10 or hAP10DR or LPS (1 μg/ml) for 24 h. Data are means±s.e.m. (n=3).
as §4

Data set [4] concerns RAW 264.7 murine macrophages. The data set can be described thus: Immunogenicity assay: IL-6 secretion (ELISA). To be noted: 10 μM peptide or LPS 1 μg/ml, 24 h. Format: cell-based. As for the experimental part:
as §5
RAW 264.7 murine macrophages were seeded (1×10^4 cells/cm^2) in a 24-well plate and allowed to grow for 24 h. Then, cells were left untreated or exposed to the hAP10 or hAP10DR peptides (10 μM) or to LPS (E. Coli O111:b4, 1 μg/ml) as a positive control for 24 h. Levels of IL-6 in the supernatants were analyzed using an Mouse IL-6 Quantikine ELISA Kit (R&D system).
Background: In an ELISA, binding on a coated surface is turned into a signal by an enzyme label.

Data set [5] has as its system various cell lines. The data set can be described thus: Lactate dehydrogenase (LDH) release assay of the shuttle peptides. Format: cell-based. As for the experimental part: as §5, §4
A further data set deals with Mice red blood cells. Kind of data set: Hemolysis assay. It is filed as cell-based. Particulars: 30 μM, 37° C., 1 h; 1% Triton X-100 = 100% lysis. As for the experimental part: as §5
Mice blood was centrifuged at 2000 rpm for 10 min. Red blood cell pellets were washed five times with PBS and resuspended in normal saline. For each assay, 1×10^7 red blood cells were incubated with or without peptide (30 μM) in normal saline at 37° C. for 1 h. The samples were then centrifuged and the absorbance of the supernatant was measured at 540 nm. To determine the percentage of lysis, absorbance readings were normalized to lysis with 1% Triton X-100.

Where no end group is shown, it is not given here.

For TAT, in the data set with U2OS cells, the “cellular distribution of fluorescence” value was “both a diffuse and punctuate fluorescence distribution”.
As for “RSRSRRRRRKLQYFARGLQVYIRQLRLALQGKT [RT33DR]”, the tolerability in vivo entry in [1] is on record as “well tolerated in vivo”. The “cell viability / cell death of non-T cell population” value with non T-cells (CD3−) is “neither peptide decreased cell viability”. The “cell viability / cell death of non-tumoral CD4+ T-cells” value in data set [2] is “neither peptide decreased cell viability”. Further, the “cell viability of normal cells” value in the data set with MRC-5 and in the data set on HaCat was “sparing the normal cells tested” throughout. Besides, the “cytotoxicity in presence of pan-caspase inhibitor zVAD-fmk” value with HUT78 was “did not block”.
As to “AAC-11 specific portion: the AAC-11 specific portion (residues 377-399) alone, without shuttle (LQYFARGLQVYIRQLRLALQGKT; UniProt Q9BZZ5 377-399, looked up, fragment)”, the “cell viability, AAC-11 portion without shuttle” value with various cell lines [3] was “nor the AAC-11 specific portion alone (not shown) decreased cell viability”.
On to “lipopolysaccharide [LPS, reference compound]”, for which, in [4], the “secreted IL-6” value is listed as “elicited a potent cytokine response”.
With RSRSRDRRRK [hAP10, RSRSRDRRRK], in the data set with non T-cells (CD3−), the “cell viability / cell death of non-T cell population” value is “did not induce cell death”. In data set [2], the “cell viability / cell death of non-tumoral CD4+ T-cells” value is reported as “did not induce cell death”. Further, the “secreted IL-6” value in data set [4] is recorded as “no significant IL-6 release was detected”. The “LDH activity release in the culture medium (membrane disturbance)” value in the data set with various cell lines [5] was “did not induce membrane disturbance”. Also, the hemolytic activity result with Mice red blood cells was “neither hAP10 nor hAP10DR exhibited hemolytic activity”.
Regarding RSRSRRRRRK [hAP10DR, RSRSRRRRRK], the “cell viability / cell death of non-T cell population” value with non T-cells (CD3−) is “did not induce cell death”. The “cell viability / cell death of non-tumoral CD4+ T-cells” value in data set [2] is “did not induce cell death”. The “secreted IL-6” value in [4] is reported as “no significant IL-6 release was detected”. Also, the “LDH activity release in the culture medium (membrane disturbance)” value in the data set with various cell lines [5] is recorded as “did not induce membrane disturbance”. In addition, the hemolytic activity result in the data set with Mice red blood cells is “neither hAP10 nor hAP10DR exhibited hemolytic activity”.
In the case of “RSRSRDRRRKLQYFARGLQVYIRQLRLALQGKT [RT33]”, the tolerability in vivo result in data set [1] is “well tolerated in vivo”. Further, the “cell viability / cell death of non-T cell population” value with non T-cells (CD3−) was “neither peptide decreased cell viability”. Besides, in data set [2], the “cell viability / cell death of non-tumoral CD4+ T-cells” value is “neither peptide decreased cell viability”. Also, the “cell viability of normal cells” value with MRC-5 and in the data set on HaCat was “sparing the normal cells tested” throughout. Moreover, the “cytotoxicity in presence of pan-caspase inhibitor zVAD-fmk” value in the data set on HUT78 was “did not block”.
